Broadly, the IC50 is the concentration that gives 50% inhibition.

Chain of interaction between p53 and MDM2 proteins (recombinant GST-tagged MDM2 / biotinylated p53 peptide) (Q00987 whole entry): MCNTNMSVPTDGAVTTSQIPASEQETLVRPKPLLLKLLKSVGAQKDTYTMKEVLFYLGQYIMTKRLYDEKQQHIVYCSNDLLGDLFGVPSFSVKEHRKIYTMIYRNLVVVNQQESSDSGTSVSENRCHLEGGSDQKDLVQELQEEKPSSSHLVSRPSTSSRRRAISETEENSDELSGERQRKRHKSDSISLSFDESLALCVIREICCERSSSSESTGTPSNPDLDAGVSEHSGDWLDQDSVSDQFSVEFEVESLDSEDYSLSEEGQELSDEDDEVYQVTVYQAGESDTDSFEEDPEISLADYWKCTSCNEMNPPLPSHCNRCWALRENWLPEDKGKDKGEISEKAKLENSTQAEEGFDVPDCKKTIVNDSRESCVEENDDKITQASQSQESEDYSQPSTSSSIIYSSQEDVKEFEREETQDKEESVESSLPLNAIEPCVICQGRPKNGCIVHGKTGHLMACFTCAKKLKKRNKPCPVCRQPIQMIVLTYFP

In the assay the target is interaction between p53 and MDM2 proteins (recombinant GST-tagged MDM2 / biotinylated p53 peptide) (Homo sapiens, UniProt Q00987). As to the kind of experiment: HTRF assay of inhibition of the p53-MDM2 interaction. The assay is classed as binding. The settings on record: 0.2% BSA. The method, then:
The ability of the compounds to inhibit the interaction between p53 and MDM2 proteins was measured by an HTRF (homogeneous time-resolved fluorescence) assay in which recombinant GST-tagged MDM2 binds to a peptide that resembles the MDM2-interacting region of p53 (Lane et al.). Binding of GST-MDM2 protein and p53-peptide (biotinylated on its N-terminal end) is registered by the FRET (fluorescence resonance energy transfer) between Europium (Eu)-labeled anti-GST antibody and streptavidin-conjugated Allophycocyanin (APC).
Test is performed in black flat-bottom 384-well plates (Costar) in a total volume of 40 uL containing: 90 nM biotinylate peptide, 160 ng/ml GST-MDM2, 20 nM streptavidin-APC (PerkinElmerWallac), 2 nM Eu-labeled anti-GST-antibody (PerkinElmerWallac), 0.2% bovine serum albumin (BSA), 1 mM dithiothreitol (DTT) and 20 mM Tris-borate saline (TBS) buffer as follows: Add 10 uL of GST-MDM2 (640 ng/ml working solution) in reaction buffer to each well. Add 10 uL diluted compounds (1:5 dilution in reaction buffer) to each well, mix by shaking. Add 20 uL biotinylated p53 peptide (180 nM working solution) in reaction buffer to each well and mix on shaker. Incubate at 37° C. for 1 h. Add 20 uL streptavidin-APC and Eu-anti-GST antibody mixture (6 nM Eu-anti-GST and 60 nM streptavidin-APC working solution) in TBS buffer with 0.2% BSA, shake at room temperature for 30 minutes and read using a TRF-capable plate reader at 665 and 615 nm (Victor 5, Perkin ElmerWallac). If not specified, the reagents were purchased from Sigma Chemical Co.
(In general: Time-resolved FRET reads energy transfer from a long-lived donor to a nearby acceptor.)
Take `C#Cc1ccc(OCC2CCN(C(=O)OC(C)(C)C)CC2)c([C@H]2NC(=O)C[C@@H](c3cccc(Cl)c3)[C@]23C(=O)Nc2cc(Cl)ccc23)c1` (racemic) [Example 2, racemic(2′R,3R,4′S)-2′-[2-(1-(tert-butoxycarbonyl)-4-piperidinylmethoxy)-5-ethynyl-phenyl]-6-chloro-4′-(3-chlorophenyl)spiro[3H-indole-3,3′-piperidine]-2,6′(1H)-dione]: the IC50 is 0.205 µM. As for `C#Cc1ccc(OC2CCN(C(=O)N(CC)CC)CC2)c([C@H]2NC(=O)C[C@@H](c3cccc(Cl)c3)[C@]23C(=O)Nc2cc(Cl)ccc23)c1` (racemic) [Example 22b, racemic(2′R,3R,4′S)-6-chloro-4′-(3-chlorophenyl)-2′-[2-(1-diethylcarbamoyl-4-piperidinyloxy)-5-ethynyl-phenyl]spiro[3H-indole-3,3′-piperidine]-2,6′(1H)-dione], the IC50 came to 0.042 µM. The figure for `O=C1C[C@@H](c2cccc(Cl)c2)[C@]2(C(=O)Nc3cc(Cl)ccc32)[C@@H](c2cc(Br)ccc2Oc2ccc(C(=O)NCCN3CCCC3)cc2)N1` (racemic) [Example 56, racemic(2′R, 3R, 4′S)-2′-{5-bromo-2-[4-(2-pyrrolidin-1-yl-ethylcarbamoyl)-phenoxy]-phenyl}-6-chloro-4′-(3-chlorophenyl)spiro[3H-indole-3,3′-piperidine]-2,6′(1H)-dione] is 0.131 µM; for `CC(=O)Nc1ccc(Oc2ccc(Cl)cc2[C@H]2NC(=O)C[C@@H](c3cccc(Cl)c3)[C@]23C(=O)Nc2cc(Cl)ccc23)cc1` (racemic) [Example 87, racemic(2′R, 3R, 4′S)-2′-[2-(4-acetylamino-phenoxy)-5-chloro-phenyl]-6-chloro-4′-(3-chlorophenyl)spiro[3H-indole-3,3′-piperidine]-2,6′(1H)-dione] it is 0.048 µM. For `CC(=O)N1CCC(Oc2ccc(I)cc2[C@H]2NC(=O)[C@@H](c3cccc(Cl)c3)C[C@]23C(=O)Nc2cc(Cl)ccc23)CC1` [Example 5c, chiral(2′R,3R,4′S)-2′-[2-(1-acetyl-4-piperidinyloxy)-5-iodo-phenyl]-6-chloro-4′-(3-chlorophenyl)spiro[3H-indole-3,3′-piperidine]-2,6′(1H)-dione], the IC50 was 0.034 µM.

(Values after US8134001B2, “Spiroindolinone derivatives” (Hoffmann-La Roche Inc., priority 2007, dated 2012).)
